Measurements reported in patent US20080051413A1, “Nitrophenylpiperazine derivative of xanthine which relaxes tracheal airway and increases respiratory performance” (KAOHSIUNG MEDICAL UNIVERSITY, priority 2006, published 2008).
Values joined by “and” are separate entries in the source; they are usually repeats but may differ in a detail not shown here. Identical values can stand only once.

Legend:
[1] = tested on: carbachol (1 _M)-precontracted guinea pig trachea; assay: Isolated tracheal preparation, measurement of tension
Method: Isolated Tracheal preparation and Measurement of Tension: Guinea pigs (350-450 g) were anesthetized with pentobarbital (70 mg/kg) i.p. and killed by a sharp blow on the neck, followed by cervical dislocation. The trachea was excised, cleaned of adhering fat and connective tissue, cut transversely into four to five rings, and then opened by cutting longitudinally through the cartilage rings diametrically opposite the tracheal smooth muscle (Hwang T L, Wu C C, and Teng C M (1999) YC-1 potentiates nitric oxide-induced relaxation in guinea-pig trachea. Br J Pharmacol 128:577-584). Then trachea rings were suspended in a 10-ml organ bath containing Krebs' solution (118 mM NaCl, 25 mM NaHCO3, 4.7 mM KCl, 1.2 mM KH2PO4, 1.2 mM MgSO4, 11 mM glucose, and 2.5 mM CaCl2, pH 7.3-7.4) maintained at 37_and aerated with 95% O2 and 5% CO2. Each tracheal tissue sample was subjected to 2 g of initial basal tension. All experiments were carried out in the presence of indomethacin (3 _M) and propranolol (1 _M) to prevent the formation of prostanoids and to inhibit _-adrenergic responses, respectively. Isometric tension was recorded with a force displacement transducer (model FT03; Grass Instruments, Quincy, M A). Before the start of measurements, all preparations were allowed to equilibrate with frequent washing for 1 h. They were first contracted with carbachol (1 _M) to determine the contractility of preparations. This was also done at the end of each experiment. The preparations were then washed and allowed to equilibrate with Krebs' solution for 50 min before being contracted a second time with carbachol (1 _M). When stable constriction to carbachol was reached, concentration responses of KMUP-3 (10, 30, and 100 _M) were obtained. Data were expressed as percentages of the maximum contractile response to carbachol (1 _M).
In experiments to examine the role of epithelium in tracheal relaxation, the epithelial cells were removed mechanically by rubbing the internal surface of trachea with a fine silver wire, and the removal of the epithelial layer was confirmed by histological examination as previously described (Wu et al., 2004).
To examine the possible mechanism of tracheal relaxant effects of KMUP-3, the tracheal strips were pretreated with a K^+ channel blocker, tetraethylammonium (TEA; 10 mM); a KATP channel blocker, glibenclamide (1-M); voltage-dependent K^+ channel blocker, 4-aminopyridine (4-AP, 100 _M); Ca^2+-dependent K^+ channel blockers, apamin (1 _M) and charybdotoxin (ChTX; 0.1 _M); a sGC inhibitor, 1H-[1,2,4]oxadiazolo[4,3-a]quinoxalin-1-one (ODQ; 1 _M); an NOS inhibitor, N—nitro-L-arginine methyl ester (L-NAME; 100 _M); and an adenylate cyclase (AC) inhibitor, SQ 22536 (100 _M) for 30 min prior to the addition of KMUP-3 (10, 30, and 100 _M). In the other experiments, TSMs were precontracted with 60 mM KCl to examine the relaxation achieved by KMUP-3. The KCl solution was prepared by substituting NaCl with KCl (60 mM) in an equimolar amount.

[2] = tested on: guinea pig tracheal smooth muscle cells; assay: Measurement of cGMP in TSMCs; format: cell-based; conditions: for GMP level: basal 1.18±0.06
Method: Cell Culture of Tracheal Smooth Muscle: Guinea pigs (350-450 g) were injected i.p. with a lethal dose of pentobarbital. The tracheas were excised and cut longitudinally through the cartilage. Using a dissecting microscope, TSM strips were dissected from the surrounding parentchyma. The epithelium was removed from the luminal surface, and bands of TSM were gently separated from the underlying connective tissue. Then TSM strips were chopped into small sections (1 mm^3) and incubated in Hanks' balanced salt solution (138 mM NaCl, 4 mM NaHCO3, 5 mM KCl, 0.3 mM KH2PO4, 0.3 mM Na2HPO4, and 1.0 mM glucose) with 0.05% elastase type IV and 0.2% collagenase type IV (Invitrogen, Carlsbad, Calif.) for 30 min at 37_ with gentle shaking. The solution of dissociated smooth muscle cells was centrifuged (6 min at 500 g), and the pellet was resuspended in 1:1 Dulbecco's modified Eagle's medium/Ham's F-12 medium supplemented with 10% fetal bovine serum, 0.244% NaHCO3, and 1% penicillin/streptomycin. Cells were cultured in 25-cm^2 flasks at 37_ in humidified air containing 5% CO2. Confluent cells were detached with 0.25% trypsin-0.02% EDTA at 37_and then subcultured to establish secondary cultures. Cultures were maintained for no more than four passages. They were identified as smooth muscle cells by the typical hill-and-valley appearance, and cellular homogeneity was further confirmed by the presence of smooth muscle specific _-myosin and _-actin immunoreactivity. Indirect immunofluorescence staining for a variety of antigens was carried out by first plating the cells on chamber slides, fixing the cells in 3.7% formaldehyde-phosphate-buffered saline for 10 min, and permeabilizing the cells with phosphate-buffered saline and 0.1% Triton X-100. Cells were then stained with either a mouse monoclonal antibody directed against the amino-terminal 10 amino acids of _-smooth muscle actin or _-myosin (Roche Diagnostics, Indianapolis, Ind.). All cells were stained with fluorescein-labeled goat anti-mouse IgG antibody (Roche Diagnostics).
Measurement of cAMP and cGMP: Intracellular concentrations of cAMP and cGMP in TSMCs were measured as in our previous reports (Wu B N, Lin R J, Lin C Y, Shen K P, Chiang L C, and Chen I J (2001) A xanthine-based KMUP-1 with cyclic GMP enhancing and K^+ channels opening activities in rat aortic smooth muscle. Br J Pharmacol 134:265-274; Lin R J, Wu B N, Lo Y C, Shen K P, Lin Y T, Huang C H, and Chen I J (2002) KMUP-1 relaxes rabbit corpus cavernosum smooth muscle in vitro and in vivo: involvement of cyclic GMP and K(+) channels, Br J Pharmacol 135:1159-1166). In brief, cells were finally grown in 24-well plates (10^5 cells/well). At confluence, monolayer cells were washed with phosphate-buffered saline and then incubated with KMUP-3 (0.01-100 _M) for 20 min at 37_ in medium. […] The reaction was terminated by replacement of medium with 1 ml of ice-cold 1 N hydrochloric acid. Cells suspensions were sonicated and then centrifuged at 2500 g for 15 min at 4_. Then, the supernatants were lyophilized and the cAMP and cGMP of each sample were determined using commercially available radioimmunoassay kits (GE Healthcare, Little Chalfont, Buckinghamshire, UK).

Cn1c(=O)c2c(ncn2CCN2CCN(c3ccc([N+](=O)[O-])cc3)CC2)n(C)c1=O [KMUP-3]
relaxation response after epithelium denudation (FIG. 3(A)) ([1]; 10, 30, 100 _M, EP− versus EP+): significant decrease in the relaxation response | relaxation, concentration response ([1]; 10, 30, 100 _M, carbachol- or high-K+-contracted EP+ TSM, also epithelium-denuded): concentration-dependent relaxation | relaxation of TSM strips ([1]; 100 _M, carbachol (1 _M)-precontracted): up to 130% | relaxation in epithelium-intact trachea (FIG. 3(B)) ([1]; 100 _M, carbachol (1 _M)-precontracted, EP+): cause relaxations | relaxation in presence of ODQ (1 _M), L-NAME (100 _M) or SQ 22536 (100 _M) (FIG. 5) ([1]; 30 min pretreatment, EP+ TSM): attenuated | relaxation against carbachol-induced contractions in presence of K+ channel blockers (FIGS. 4(A)-4(E)) ([1]; pretreatment with TEA, glibenclamide, 4-AP, apamin or ChTX, EP+): inhibited | GMP level ([2]; 0.01 _M, 20 min): 1.62±0.05 pmol/mg protein | GMP level ([2]; 0.1 _M, 20 min): 1.73±0.01 pmol/mg protein | GMP level ([2]; 1 _M, 20 min): 1.75±0.04 pmol/mg protein | GMP level ([2]; 10 _M, 20 min): 1.86±0.05 pmol/mg protein | Cyclic GMP level in presence of L-NAME ([2]; 100 _M compound plus L-NAME (100 _M) pretreatment): 1.28 ± 0.01 pmol/mg protein | Cyclic GMP level in presence of ODQ ([2]; 100 _M compound plus ODQ (10 _M) pretreatment): 1.35 ± 0.04 pmol/mg protein | amounts of cGMP versus vehicle (FIG. 6) ([2]; 100 _M, 20 min): significantly enhances | Cyclic GMP level ([2]; 100 _M, 20 min, basal/vehicle 1.18±0.06): 1.98±0.09 pmol/mg protein and 1.98 ± 0.08 pmol/mg protein
